Converted amounts (≈) assume the structure as drawn.
How the values were obtained:
Format in all cases: functional
Staphylococcus aureus = experiment: Antibacterial activity against Staphylococcus aureus Smith by standard serial agar dilution method
Streptococcus pneumoniae = experiment: Antibacterial activity against penicillin-resistant Streptococcus pneumoniae SR-16675 by standard serial agar dilution method
Escherichia coli [1] = experiment: Antibacterial activity against Escherichia coli SR-21003 by standard serial agar dilution method
Escherichia coli [2] = experiment: Antibacterial activity against Toho 2 producing Escherichia coli by standard serial agar dilution method
Enterobacter cloacae [3] = experiment: Antibacterial activity against Enterobacter cloacae ATCC 13047 by standard serial agar dilution method
Enterobacter cloacae [4] = experiment: Antibacterial activity against AmpC producing Enterobacter cloacae SR-4321 by standard serial agar dilution method
Pseudomonas aeruginosa [5] = experiment: Antibacterial activity against Pseudomonas aeruginosa SR24 by standard serial agar dilution method
Pseudomonas aeruginosa [6] = experiment: Antibacterial activity against AmpC hyperproducing Pseudomonas aeruginosa SR24-12 by standard serial agar dilution method
Pseudomonas aeruginosa [7] = experiment: Antibacterial activity against Pseudomonas aeruginosa SR-5393 by standard serial agar dilution method
Pseudomonas aeruginosa [8] = experiment: Antibacterial activity against imipenem-resistant Pseudomonas aeruginosa SR-6554 by standard serial agar dilution method
Haemophilus influenzae [9] = experiment: Antibacterial activity against Haemophilus influenzae ATCC 49766 by standard serial agar dilution method
Haemophilus influenzae [10] = experiment: Antibacterial activity against beta-lactamase negative ampicillin-resistant Haemophilus influenzae SR-11435 by standard serial agar dilution method
Moraxella catarrhalis = experiment: Antibacterial activity against Moraxella catarrhalis ATCC 43617 by standard serial agar dilution method

| Compound | MIC (Staphylococcus aureus) [µg/mL] | MIC (Streptococcus pneumoniae) [µg/mL] | MIC (Escherichia coli [1]) [µg/mL] | MIC (Escherichia coli [2]) [µg/mL] | MIC (Enterobacter cloacae [3]) [µg/mL] | MIC (Enterobacter cloacae [4]) [µg/mL] | MIC (Pseudomonas aeruginosa [5]) [µg/mL] | MIC (Pseudomonas aeruginosa [6]) [µg/mL] | MIC (Pseudomonas aeruginosa [7]) [µg/mL] | MIC (Pseudomonas aeruginosa [8]) [µg/mL] | MIC (Haemophilus influenzae [9]) [µg/mL] | MIC (Haemophilus influenzae [10]) [µg/mL] | MIC (Moraxella catarrhalis) [µg/mL] |
| --- | --- | --- | --- | --- | --- | --- | --- | --- | --- | --- | --- | --- | --- |
| C[C@H](O/N=C(\C(=O)N[C@@H]1C(=O)N2C(C(=O)[O-])=C(C[n+]3cccc4c3ccn4CC(N)=O)CS[C@H]12)c1nc(N)sc1Cl)C(=O)O | 2 (≈ 3.02 µM) | 2 (≈ 3.02 µM) | 0.25 (≈ 0.377 µM) | 2 (≈ 3.02 µM) | 0.5 (≈ 0.754 µM) | 4 (≈ 6.03 µM) | 1 (≈ 1.51 µM) | 4 (≈ 6.03 µM) | 4 (≈ 6.03 µM) | 16 (≈ 24.1 µM) | 0.032 (≈ 0.0483 µM) | 0.063 (≈ 0.095 µM) | 0.016 (≈ 0.0241 µM) |
| C[C@H](N)CCn1c(N)nc2c1ccc[n+]2CC1=C(C(=O)[O-])N2C(=O)[C@@H](NC(=O)/C(=N\O[C@@H](C)C(=O)O)c3nc(N)sc3Cl)[C@H]2SC1 | 2 (≈ 2.89 µM) | 2 (≈ 2.89 µM) | 0.25 (≈ 0.361 µM) | 2 (≈ 2.89 µM) | 0.5 (≈ 0.721 µM) | 2 (≈ 2.89 µM) | 0.5 (≈ 0.721 µM) | 4 (≈ 5.77 µM) | 2 (≈ 2.89 µM) | 8 (≈ 11.5 µM) | 0.016 (≈ 0.0231 µM) | 0.063 (≈ 0.0909 µM) | 0.008 (≈ 0.0115 µM) |
| C[C@H](O/N=C(\C(=O)N[C@@H]1C(=O)N2C(C(=O)[O-])=C(C[n+]3ccc(NC4CNC4)cc3)CS[C@H]12)c1nc(N)sc1Cl)C(=O)O | 2 (≈ 3.14 µM) | 4 (≈ 6.28 µM) | 0.5 (≈ 0.785 µM) | 4 (≈ 6.28 µM) | 0.5 (≈ 0.785 µM) | 4 (≈ 6.28 µM) | 0.5 (≈ 0.785 µM) | 4 (≈ 6.28 µM) | 2 (≈ 3.14 µM) | 8 (≈ 12.6 µM) | 0.063 (≈ 0.0989 µM) | 0.25 (≈ 0.392 µM) | 0.016 (≈ 0.0251 µM) |
| C[C@H](O/N=C(\C(=O)N[C@@H]1C(=O)N2C(C(=O)[O-])=C(C[n+]3cccc4c3ccn4CCNC(N)=O)CS[C@H]12)c1nc(N)sc1Cl)C(=O)O | 4 (≈ 5.78 µM) | 4 (≈ 5.78 µM) | 0.25 (≈ 0.361 µM) | 2 (≈ 2.89 µM) | 0.5 (≈ 0.722 µM) | 4 (≈ 5.78 µM) | 1 (≈ 1.44 µM) | 8 (≈ 11.6 µM) | 4 (≈ 5.78 µM) | 16 (≈ 23.1 µM) | 0.032 (≈ 0.0462 µM) | 0.063 (≈ 0.091 µM) | 0.032 (≈ 0.0462 µM) |
| C[C@H](O/N=C(\C(=O)N[C@@H]1C(=O)N2C(C(=O)[O-])=C(C[n+]3cccc4c3ccn4CCO)CS[C@H]12)c1nc(N)sc1Cl)C(=O)O | 2 (≈ 3.08 µM) | 4 (≈ 6.15 µM) | 0.25 (≈ 0.385 µM) | 2 (≈ 3.08 µM) | 0.5 (≈ 0.769 µM) | 4 (≈ 6.15 µM) | 1 (≈ 1.54 µM) | 8 (≈ 12.3 µM) | 4 (≈ 6.15 µM) | 16 (≈ 24.6 µM) | 0.032 (≈ 0.0492 µM) | 0.063 (≈ 0.0969 µM) | 0.016 (≈ 0.0246 µM) |
| C[C@H](O/N=C(\C(=O)N[C@@H]1C(=O)N2C(C(=O)[O-])=C(C[n+]3cccc4c3nc(N)n4CCNCCO)CS[C@H]12)c1nc(N)sc1Cl)C(=O)O | 4 (≈ 5.64 µM) | 2 (≈ 2.82 µM) | 0.5 (≈ 0.705 µM) | 4 (≈ 5.64 µM) | 0.5 (≈ 0.705 µM) | 2 (≈ 2.82 µM) | 1 (≈ 1.41 µM) | 4 (≈ 5.64 µM) | 4 (≈ 5.64 µM) | 16 (≈ 22.6 µM) | 0.032 (≈ 0.0451 µM) | 0.063 (≈ 0.0888 µM) | 0.016 (≈ 0.0226 µM) |
| C[C@H](O/N=C(\C(=O)N[C@@H]1C(=O)N2C(C(=O)[O-])=C(C[n+]3cccc4c3nc(N)n4[C@H]3CCNC3)CS[C@H]12)c1nc(N)sc1Cl)C(=O)O | 4 (≈ 5.79 µM) | 2 (≈ 2.89 µM) | 0.25 (≈ 0.362 µM) | 2 (≈ 2.89 µM) | 0.5 (≈ 0.723 µM) | 2 (≈ 2.89 µM) | 0.5 (≈ 0.723 µM) | 2 (≈ 2.89 µM) | 2 (≈ 2.89 µM) | 8 (≈ 11.6 µM) | 0.032 (≈ 0.0463 µM) | 0.125 (≈ 0.181 µM) | 0.016 (≈ 0.0231 µM) |
| CNCCCn1c(N)cc2c1ccc[n+]2CC1=C(C(=O)[O-])N2C(=O)[C@@H](NC(=O)/C(=N\O[C@@H](C)C(=O)O)c3nc(N)sc3Cl)[C@H]2SC1 | 1 (≈ 1.44 µM) | 4 (≈ 5.78 µM) | 0.25 (≈ 0.361 µM) | 2 (≈ 2.89 µM) | 0.5 (≈ 0.722 µM) | 2 (≈ 2.89 µM) | 0.5 (≈ 0.722 µM) | 2 (≈ 2.89 µM) | 2 (≈ 2.89 µM) | 16 (≈ 23.1 µM) | 0.016 (≈ 0.0231 µM) | 0.063 (≈ 0.091 µM) | 0.016 (≈ 0.0231 µM) |
| C[C@H](O/N=C(\C(=O)N[C@@H]1C(=O)N2C(C(=O)[O-])=C(C[n+]3cccc4c3ccn4CC(=O)O)CS[C@H]12)c1nc(N)sc1Cl)C(=O)O | 8 (≈ 12 µM) | 4 (≈ 6.02 µM) | 0.5 (≈ 0.753 µM) | 4 (≈ 6.02 µM) | 1 (≈ 1.51 µM) | 16 (≈ 24.1 µM) | 2 (≈ 3.01 µM) | 32 (≈ 48.2 µM) | 4 (≈ 6.02 µM) | 32 (≈ 48.2 µM) | 0.016 (≈ 0.0241 µM) | 0.063 (≈ 0.0949 µM) | 0.032 (≈ 0.0482 µM) |
| CNCCn1c(N)nc2c[n+](CC3=C(C(=O)[O-])N4C(=O)[C@@H](NC(=O)/C(=N\O[C@@H](C)C(=O)O)c5nc(N)sc5Cl)[C@H]4SC3)ccc21 | 16 (≈ 23.6 µM) | 4 (≈ 5.89 µM) | 0.25 (≈ 0.368 µM) | 1 (≈ 1.47 µM) | 0.5 (≈ 0.736 µM) | 4 (≈ 5.89 µM) | 1 (≈ 1.47 µM) | 4 (≈ 5.89 µM) | 2 (≈ 2.94 µM) | 8 (≈ 11.8 µM) | 0.032 (≈ 0.0471 µM) | 0.125 (≈ 0.184 µM) | 0.032 (≈ 0.0471 µM) |

Reference: ChEMBL document CHEMBL1144019 (Bioorg Med Chem, 2008)
